What was measured:
[1] = test system: PI3Ks, all of the isoforms; set-up: method as in PMID 8106507; settings: read-out: IC50 against all of the isoforms; cited from earlier work
PI3Ks = experiment: PI3K inhibitory activity of copper salts; type: biochemical; settings: up to 10 μM
Procedure: With this procedure in hand, we proceeded with our combinatorial strategy. The azides were selected to introduce both electron‐donating and electron‐withdrawing groups, hydrogen‐bond donors and acceptors, and ionizable functions. They were already present in our database or prepared according to standard procedures. […] Then, the 1,2,3‐triazoles were evaluated for their ability to inhibit PI3K isoforms of class I at a fixed concentration of 1 μM, as shown in Table 1. The synthesized 1,2,3‐triazoles along with their ability to inhibit PI3K isoforms at 1 μM concentration are reported. Possibly, a minute concentration of copper salts might have precipitated with the products and might have been retained in the purified compounds, and so, we also evaluated the PI3K inhibitory activity of these salts.

For `O=c1cc(N2CCOCC2)oc2c(-c3ccccc3)cccc12` [LY294002], the IC50 [1] is listed as about 500 nM.

With `[Cu+].[I-]` [copper(I) iodide] the “inhibition of PI3Ks” value (PI3Ks) was “Neither copper(II) acetate nor copper(I) iodide displayed significant inhibition of PI3Ks up to 10 μM”.

In the case of `CC(=O)[O-].CC(=O)[O-].[Cu+2]` [copper(II) acetate], the “inhibition of PI3Ks” value (PI3Ks) is reported as “Neither copper(II) acetate nor copper(I) iodide displayed significant inhibition of PI3Ks up to 10 μM”.

Reference: article PMC5697638, “Identification of a Potent Phosphoinositide 3‐Kinase Pan Inhibitor Displaying a Strategic Carboxylic Acid Group and Development of Its Prodrugs” (Chemmedchem, 2017)
